A short description of data set [1]: in vitro. The conditions noted are these: hepatocytes, 3 μM compound, read-out: Liver Hepatocyte Stability t1/2. In kind it is in vitro ADME. Here is the method:
Compounds were subjected to the following assays to investigate liver microsomal stability and hepatocyte stability.
Hepatocyte Incubation: Experimental Procedure
Cryopreserved pooled hepatocytes were purchased from a reputable commercial supplier and stored in liquid nitrogen prior to use. Williams E media supplemented with 2 mM L-glutamine and 25 mM HEPES and test compound (final substrate concentration 3 μM; final DMSO concentration 0.25%) are pre-incubated at 37° C. prior to the addition of a suspension of cryopreserved hepatocytes (final cell density 0.5×10^6 viable cells/mL in Williams E media supplemented with 2 mM L-glutamine and 25 mM HEPES) to initiate the reaction. The final incubation volume is 500 μL. Two control compounds were included with each species, alongside appropriate vehicle control. The reactions are stopped by transferring 50 μL of incubate to 100 μL acetonitrile containing internal standard at the appropriate time points. Samples were removed at 6 time points (0, 5, 15, 30, 45 and 60 min) over the course of a 60 min experiment. The termination plates are centrifuged at 2500 rpm at 4° C. for 30 min to precipitate the protein. Following protein precipitation, the sample supernatants were combined in cassettes of up to 4 compounds and analysed using generic LC-MS/MS conditions. From a plot of ln peak area ratio (compound peak area/internal standard peak area) against time, the gradient of the line is determined. Subsequently, half-life (t1/2) and intrinsic clearance (CLint) were calculated.

A further data set is described as follows: in vivo. In kind it is in vivo. The settings on record: male Beagle dog; for Vd / clearance / Cmax / half-life / AUC(0-t): in vivo; for Cmax / C 8 h: IV 0.5 mg/kg / PO 3 or 4 mg/kg study; for AUC(0-t): read-out: PO AUClast. Here is the method:
The pharmacokinetics of compounds were studied in vivo in dogs at doses of 0.5 mg/kg (IV) and 4 mg/kg (PO).
Male Beagle dogs were treated with experimental compounds via intravenous administration (n=2; 0.5 mg/kg) or oral administration (n=2; 3 or 4 mg/kg). Compounds were formulated as a solution in 20% dimethylacetamide/80% (2-hydroxypropyl)-β-cyclodextrin (20% w/v) (IV administration) or a solution in 10% dimethylacetamide/90% (2-hydroxypropyl)-β-cyclodextrin (20% w/v) (PO administration). […] Serial blood samples were collected from the jugular vein at 0.03, 0.08, 0.25, 0.5, 1, 2, 4, 6, 8 and 24 h post IV dosing of compound, and at 0.08, 0.25, 0.5, 1, 2, 4, 6, 8 and 24 h post oral dosing of compound, and plasma was prepared by centrifugation and stored immediately at −80° C. Samples were subsequently thawed, prepared for analysis by protein precipitation with acetonitrile, and analysed by tandem LCMS using electrospray ionisation using a matrix-matched calibration curve. PK parameters were calculated from the resulting data.

A further data set relates to RSV A2. As to the kind of experiment: RSV plaque reduction assay. The format is cell-based, respiratory syncytial virus (RSV). The conditions noted are these: human respiratory syncytial virus, HepG2, Hep-G2 cells, mean of at least two experiments. Summed up:
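EC50 is the 50% reduction in immunostained plaque count versus virus-control wells, interpolated from variable-slope 4-parameter fits and averaged over at least two runs. Hep-G2 cells were infected with 100 PFU/well RSV A2 premixed with compound, with the inoculum removed after 2 h. Incubation continued at 37 °C for 2 days under a CMC overlay with compound.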
On the technique in general: In a plaque reduction assay, fewer plaques than in the control indicate reduced infectivity or spread.

The nature of data set [2]: in vitro. The conditions noted are these: microsomes, pH 7.4, 1 μM compound, 0.5 mg/mL protein, read-out: Liver Microsomal Stability t1/2. The format is in vitro ADME. The essentials: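 Pooled liver microsomes (0.5 mg/mL protein) in 0.1 M phosphate pH 7.4 with 1 μM compound and 1 mM NADPH at 37° C., sampled at 0–45 min; minus-NADPH control at 45 min. Acetonitrile quench, LC-MS/MS; t1/2 and CLint from ln peak-area ratio vs time slope.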
For orientation: Liver microsomes are a subcellular fraction often used to study metabolism.

The mark [3] stands for this setting: IV 0.5 mg/kg, read-out: IV t1/2 (converted).
Setting [4] is: PO 3 or 4 mg/kg, read-out: PO t1/2 (converted).

Like-named read-outs stand apart in the source and are kept apart here.

As usually defined, the Vd is a proportionality between amount in the body and measured concentration, not a real space. Low values mean little distribution into tissue, high ones wide distribution into tissue. As usually defined, the clearance is the volume of plasma or blood freed of the substance per unit of time. For orientation: Cmax means the maximum level reached in the sampled fluid or tissue. As a reminder, the EC50 is the midpoint of the concentration-response curve. Regarding `Cc1ccc(-c2nn3cccnc3c2C(=O)N[C@H]2N=C(c3ccccc3)c3cccc(F)c3NC2=O)cn1` [Example 50, N-[(3S)-9-fluoro-2-oxo-5-phenyl-1,3-dihydro-1,4-benzodiazepin-3-yl]-2-(6-methylpyridin-3-yl)pyrazolo[1,5-a]pyrimidine-3-carboxamide], the values for the half-life at 3 μM in the data set “in vitro [1]” (dog), in the data set “in vitro [1]” (human) and in “in vitro [1]” (rat) were over 3.1 h, over 3.1 h and 96.7 h, respectively. Besides, the Vd in the data set “in vivo” (IV 0.5 mg/kg) turned out to be 1.3 L/kg. This compound also registered a clearance in the data set “in vivo” (IV 0.5 mg/kg) of 1.7 mL/min/kg. This compound also gave a Cmax in “in vivo” of 1200 ng/mL. Further, the figures for the half-life in the data set “in vivo” (setting [3]) and in the data set “in vivo” (setting [4]) were 12.2 h and 16.1 h, respectively. The AUC(0-t) in “in vivo” (PO 3 or 4 mg/kg) was found to be 13300 ng·h/mL. Further, the “C 8 h” value in “in vivo” worked out at 549 ng/mL. Further, in the data set “in vivo” (IV 0.5 mg/kg, PO 3 or 4 mg/kg), the F was found to be 65%. Also, in the data set with RSV A2, the 50% effective concentration (EC50) stood at 99 nM. The half-life at 1 μM is 13.3 h in the data set “in vitro [2]” (dog), 13.4 h in the data set “in vitro [2]” (human) and 3.88 h in “in vitro [2]” (rat).
In the case of `O=C(N[C@H]1N=C(c2ccccc2)c2ccccc2NC1=O)c1c(-c2ccccc2F)nn2cccnc12` [Example 2, 2-(2-Fluorophenyl)-N-[(3S)-2-oxo-5-phenyl-1,3-dihydro-1,4-benzodiazepin-3-yl]pyrazolo[1,5-a]pyrimidine-3-carboxamide], the half-life at 3 μM stood at 1.12 h in the data set “in vitro [1]” (dog), 145 h in “in vitro [1]” (human) and 3.95 h in the data set “in vitro [1]” (rat). This compound registered a Vd in “in vivo” (IV 0.5 mg/kg) of 0.92 L/kg. The same compound registered a clearance in “in vivo” (IV 0.5 mg/kg) of 1.3 mL/min/kg. In the data set “in vivo”, this compound showed a peak concentration (Cmax) of 1920 ng/mL. For the same compound, the half-life was 9.8 h in “in vivo” (setting [3]) and 11.1 h in the data set “in vivo” (setting [4]). The AUC(0-t) in “in vivo” (PO 3 or 4 mg/kg) came out at 22300 ng·h/mL. For the same compound, the “C 8 h” value in the data set “in vivo” is reported as 968 ng/mL. The same compound yielded a F in “in vivo” (IV 0.5 mg/kg, PO 3 or 4 mg/kg) of 55%. Also, the EC50 in the data set with RSV A2 turned out to be 39 nM. Moreover, the half-life at 1 μM in the data set “in vitro [2]” (dog) is 7.38 h; in “in vitro [2]” (human), 3.08 h; in “in vitro [2]” (rat), over 2.33 h.
Take `CCc1ccc(-c2nn3cccnc3c2C(=O)N[C@H]2N=C(c3ccccc3)c3cccc(F)c3NC2=O)cn1` [Example 55]: the half-life at 3 μM in the data set “in vitro [1]” (dog) was 2.43 h; in the data set “in vitro [1]” (human) it was over 3.1 h; in “in vitro [1]” (rat), 1.43 h. The compound further yielded a Vd in the data set “in vivo” (IV 0.5 mg/kg) of 0.47 L/kg. In “in vivo” (IV 0.5 mg/kg), this compound yielded a clearance of 1.5 mL/min/kg. In the data set “in vivo”, this compound yielded a Cmax of 3210 ng/mL. The values for the half-life in the data set “in vivo” (setting [3]) and in “in vivo” (setting [4]) were 5.4 h and 6.1 h, respectively. In the data set “in vivo” (PO 3 or 4 mg/kg), the AUC(0-t) came to 20900 ng·h/mL. In addition, the “C 8 h” value in “in vivo” is reported as 720 ng/mL. Besides, in the data set “in vivo” (IV 0.5 mg/kg, PO 3 or 4 mg/kg), the F worked out at 65%. This compound also registered an EC50 in the data set with RSV A2 of 45 nM. Also, the half-life at 1 μM in the data set “in vitro [2]” (dog) amounted to 1.87 h; in the data set “in vitro [2]” (human) it was 2.93 h; in the data set “in vitro [2]” (rat), 1.01 h.

(Values after US11634425B2, “Pharmaceutical compounds” (priority 2019, dated 2023).)
